These results are taken from patent publication US10005762B2, “Pyridine derivatives” (Astellas Pharma Inc., priority 2014, dated 2018).

Marks after values point to notes of the source that are not given here.

The target in one experiment is IRAP (Rattus norvegicus (Rat), UniProt P97629). Kind of experiment: Inhibition of IRAP activity (AVP degradation, rat epididymal fat pad microsomes, MALDI-MS). To be noted: read-out: IRAP IC50, AVP 25 μM, 1 h at 37° C.
IRAP, sequence (P97629 whole entry): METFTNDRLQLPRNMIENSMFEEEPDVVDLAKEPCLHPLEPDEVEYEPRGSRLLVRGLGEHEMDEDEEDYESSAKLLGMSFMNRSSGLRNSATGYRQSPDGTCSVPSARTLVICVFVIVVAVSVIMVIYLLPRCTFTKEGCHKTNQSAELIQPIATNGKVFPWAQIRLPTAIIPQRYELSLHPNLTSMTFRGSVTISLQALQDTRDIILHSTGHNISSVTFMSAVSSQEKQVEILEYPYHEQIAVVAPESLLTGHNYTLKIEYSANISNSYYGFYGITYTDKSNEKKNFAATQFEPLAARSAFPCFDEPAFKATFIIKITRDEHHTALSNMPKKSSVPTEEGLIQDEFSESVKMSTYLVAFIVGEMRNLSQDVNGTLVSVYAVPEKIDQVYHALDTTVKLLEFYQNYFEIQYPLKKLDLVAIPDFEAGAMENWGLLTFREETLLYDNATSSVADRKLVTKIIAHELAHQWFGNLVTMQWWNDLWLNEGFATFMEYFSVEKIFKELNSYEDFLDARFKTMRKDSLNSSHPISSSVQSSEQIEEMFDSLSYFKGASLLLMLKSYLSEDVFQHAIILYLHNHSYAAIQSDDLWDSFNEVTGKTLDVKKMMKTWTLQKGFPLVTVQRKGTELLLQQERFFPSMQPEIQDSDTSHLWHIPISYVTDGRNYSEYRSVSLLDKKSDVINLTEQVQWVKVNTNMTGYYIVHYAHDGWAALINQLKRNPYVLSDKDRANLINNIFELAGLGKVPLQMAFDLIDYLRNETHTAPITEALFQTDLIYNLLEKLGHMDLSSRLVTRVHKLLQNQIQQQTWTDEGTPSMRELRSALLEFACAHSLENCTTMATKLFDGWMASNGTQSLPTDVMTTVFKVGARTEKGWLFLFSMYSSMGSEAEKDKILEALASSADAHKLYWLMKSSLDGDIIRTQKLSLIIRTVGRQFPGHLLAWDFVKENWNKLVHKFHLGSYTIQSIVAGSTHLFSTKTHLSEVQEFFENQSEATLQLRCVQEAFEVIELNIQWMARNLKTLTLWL
Experimental: (1) Inhibition of IRAP Activity
Residual AVP was then determined by mass spectrometry (MALDI-MS).
Regarding `CC(C)C[C@H](N)[C@](O)(Cc1nccc2c1CCC(OCc1ccccc1)C2)C(=O)O` (some centres unmarked) [Example 80], the IC50 (commonly the concentration at which inhibition is half-maximal) came out at 130 nM. For the molecule `CC(C)C[C@H](N)[C@](O)(Cc1nccc2c1CCC1(CCCC1)C2)C(=O)O` [Example 19], the IC50 is 220 nM. On the same count and under the same terms, the figure for `COc1ccc(-c2ccnc(C[C@](O)(C(=O)O)[C@@H](N)CC(C)C)c2)cc1` [Example 57] is 130 nM.

With `CC(C)C[C@H](N)[C@](O)(Cc1cc(C2=CCOCC2)ccn1)C(=O)O` [Example 59], the half-maximal inhibitory concentration (IC50) is 110 nM. Take `CC(C)C[C@H](N)[C@](O)(Cc1cc(C2CCOCC2)ccn1)C(=O)O` [Example 78]: the IC50 was 160 nM.

Another experiment deals with water-loaded rats. Kind of experiment: Antidiuresis test in water-loaded rats (oral administration). The following applies: 1 mg/kg oral (values marked *); water load 30 ml/kg 1 h after dosing; urine volume 1 h after water loading; vs vehicle control. Type of experiment: in vivo, rat. The procedure:
When a test compound is a free base, one molar equivalent hydrochloric acid was added to dissolve the compound in the solvent. Rats in a vehicle control group were administered only with the vehicle. One hour after the administration, 30 ml/kg of distilled water was orally administered to the rats. One hour after the water loading, the urine volume was measured (urine volumes less than 0.3 ml were considered as 0 ml) to calculate the ratio of the urine volume (urinary excretion rate) to the amount of water load.
As for `CSC[C@H](N)[C@](O)(Cc1nccc2c1C[C@H](CCC1CC1)C2)C(=O)O` [Example 41], the “Inhibition of urination (%)” value was 69* %. For `CSC[C@H](N)[C@](O)(Cc1nccc2c1C[C@@H](CCC1CC1)C2)C(=O)O` [Example 44], the “Inhibition of urination (%)” value is 51* %. Regarding `CCCSC[C@H](N)[C@](O)(Cc1nccc2c1C[C@H](CCC1CC1)C2)C(=O)O` [Example 42], the “Inhibition of urination (%)” value is on record as 81* %.

Staying with this experiment, now noted: 3 mg/kg oral; water load 30 ml/kg 1 h after dosing; urine volume 1 h after water loading; vs vehicle control.
For the molecule `Cc1cnc(C[C@](O)(C(=O)O)[C@@H](N)COCCC2CC2)cc1CCCC1CC1` [Example 25], the “Inhibition of urination (%)” value is recorded as 88%. `CC(C)C[C@H](N)[C@](O)(Cc1nccc2c1C[C@H](CCC1CC1)C2)C(=O)O` [Example 52]: the “Inhibition of urination (%)” value is recorded as 90%. Consider `N[C@@H](CCC1CC1)[C@](O)(Cc1cc(CCCC2CC2)ccn1)C(=O)O` [Example 40], for which the “Inhibition of urination (%)” value was 100%.
